Data reported in PubChem BioAssay (NCI).
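GI50: concentration for 50% inhibition of growth. The concentration for full growth arrest is given as TGI.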

Columns and labels:
Experiment in all cases: NCI tumour cell line growth inhibition, 384-well format
[1] = system: MCF7 breast
[2] = system: IGROV1 ovarian
[3] = system: HOP-62 NSCLC
[4] = system: OVCAR-3 ovarian
[5] = system: BT-549 breast
[6] = system: A549 NSCLC
[7] = system: NCI-H460 NSCLC
[8] = system: SK-MEL-5 melanoma
[9] = system: SNB-75 CNS
[10] = system: RPMI-8226 leukemia
[11] = system: SK-OV-3 ovarian
[12] = system: SNB-19 CNS
[13] = system: SF-539 CNS
[14] = system: NCI-H23 lung
[15] = system: NCI-H322M lung
[16] = system: MDA-MB-468 breast
[17] = system: HOP-92 NSCLC
[18] = system: KM12 colon
[19] = system: SW-620 colon
[20] = system: EKVX NSCLC
[21] = system: UACC-257 melanoma
[22] = system: K-562 leukemia
[23] = system: HS 578T breast
[24] = system: U251 glioblastoma
[25] = system: PC-3 prostate
[26] = system: COLO 205 colon
[27] = system: M14 melanoma
[28] = system: ACHN renal
[29] = system: LOX IMVI melanoma
[30] = system: OVCAR-8 ovarian
[31] = system: NCI-H522 lung
[32] = system: OVCAR-4 ovarian
[33] = system: SK-MEL-28 melanoma
[34] = system: CCRF-CEM leukemia
[35] = system: SK-MEL-2 melanoma
[36] = system: SN12C renal
[37] = system: MOLT-4 leukemia
[38] = system: HCT-116 colon
[39] = system: A498 renal
[40] = system: SF-268 CNS
[41] = system: HT29 colon
[42] = system: DU-145 prostate
[43] = system: RXF 393 renal
[44] = system: NCI/ADR-RES ovarian
[45] = system: MDA-MB-435 melanoma
[46] = system: 786-0 renal
[47] = system: HCC-2998 colon
[48] = system: MALME-3M melanoma
[49] = system: TK-10 renal
[50] = system: HCT-15 colon
[51] = system: UACC-62 melanoma
[52] = system: SF-295 CNS
[53] = system: HL-60(TB) leukemia
[54] = system: NCI-H226 lung
[55] = system: CAKI-1 renal

SMILES: CC/C(=C(\c1ccccc1)c1ccc(OCCNC)cc1)c1ccccc1
- GI50 [1]: 1.2 µM
- TGI [1]: 2.61 µM
- GI50 [2]: 1.86 µM
- TGI [2]: 3.35 µM
- GI50 [3]: 2.35 µM
- TGI [3]: 3.83 µM
- GI50 [4]: 1.92 µM
- TGI [4]: 3.4 µM
- GI50 [5]: 1.82 µM
- TGI [5]: 3.26 µM
- GI50 [6]: 1.71 µM
- TGI [6]: 3.16 µM
- GI50 [7]: 1.98 µM
- TGI [7]: 3.51 µM
- GI50 [8]: 1.69 µM
- TGI [8]: 3.08 µM
- GI50 [9]: 2.06 µM
- TGI [9]: 3.55 µM
- GI50 [10]: 2.29 µM
- TGI [10]: 3.76 µM
- GI50 [11]: 1.87 µM
- TGI [11]: 3.3 µM
- GI50 [12]: 2.14 µM
- TGI [12]: 3.64 µM
- GI50 [13]: 2.1 µM
- TGI [13]: 3.56 µM
- GI50 [14]: 2.13 µM
- TGI [14]: 3.67 µM
- GI50 [15]: 2.16 µM
- TGI [15]: 3.7 µM
- GI50 [16]: 2.39 µM
- TGI [16]: 3.87 µM
- GI50 [17]: 2.05 µM
- TGI [17]: 3.51 µM
- GI50 [18]: 1.99 µM
- TGI [18]: 3.47 µM
- GI50 [19]: 1.98 µM
- TGI [19]: 3.46 µM
- GI50 [20]: 1.92 µM
- TGI [20]: 3.67 µM
- GI50 [21]: 2.3 µM
- TGI [21]: 3.77 µM
- GI50 [22]: 1.83 µM
- TGI [22]: 3.25 µM
- GI50 [23]: 1.9 µM
- TGI [23]: 3.32 µM
- GI50 [24]: 2.16 µM
- TGI [24]: 3.64 µM
- GI50 [25]: 1.97 µM
- TGI [25]: 3.48 µM
- GI50 [26]: 1.94 µM
- TGI [26]: 3.4 µM
- GI50 [27]: 2.07 µM
- TGI [27]: 3.52 µM
- GI50 [28]: 1.85 µM
- TGI [28]: 3.3 µM
- GI50 [29]: 1.79 µM
- TGI [29]: 3.21 µM
- GI50 [30]: 1.86 µM
- TGI [30]: 3.32 µM
- GI50 [31]: 1.93 µM
- TGI [31]: 3.36 µM
- GI50 [32]: 2.1 µM
- TGI [32]: 3.68 µM
- GI50 [33]: 2.07 µM
- TGI [33]: 3.52 µM
- GI50 [34]: 1.73 µM
- TGI [34]: 3.13 µM
- GI50 [35]: 1.86 µM
- TGI [35]: 3.28 µM
- GI50 [36]: 1.85 µM
- TGI [36]: 3.42 µM
- GI50 [37]: 1.49 µM
- TGI [37]: 2.82 µM
- GI50 [38]: 1.97 µM
- TGI [38]: 3.45 µM
- GI50 [39]: 1.72 µM
- TGI [39]: 3.1 µM
- GI50 [40]: 2.36 µM
- TGI [40]: 3.93 µM
- GI50 [41]: 1.77 µM
- TGI [41]: 3.19 µM
- GI50 [42]: 2.26 µM
- TGI [42]: 4.24 µM
- GI50 [43]: 2.02 µM
- TGI [43]: 3.47 µM
- GI50 [44]: 2.2 µM
- TGI [44]: 3.91 µM
- GI50 [45]: 2.06 µM
- TGI [45]: 3.5 µM
- GI50 [46]: 1.79 µM
- TGI [46]: 3.2 µM
- GI50 [47]: 1.66 µM
- TGI [47]: 3.04 µM
- GI50 [48]: 2.15 µM
- TGI [48]: 3.61 µM
- GI50 [49]: 2.12 µM
- TGI [49]: 4.07 µM
- GI50 [50]: 1.82 µM
- TGI [50]: 3.27 µM
- GI50 [51]: 2.16 µM
- TGI [51]: 3.63 µM
- GI50 [52]: 1.88 µM
- TGI [52]: 3.3 µM
- GI50 [53]: 1.58 µM
- TGI [53]: 2.94 µM
- GI50 [54]: 2.15 µM
- TGI [54]: 4.65 µM
- GI50 [55]: 1.53 µM
- TGI [55]: 2.92 µM
